These results are taken from patent US20150125397A1, “DUAL SPECIFIC BINDING PROTEINS DIRECTED AGAINST IMMUNE CELL RECEPTORS AND AUTOANTIGENS” (ABBVIE INC., priority 2013, published 2015).

Common to all, as to assay type: cell-based, mouse
Assay [1] has as its system Dnase2−/− Ifnar1−/− DKO B cells. As to the kind of experiment: 3H-thymidine incorporation of B220-purified B cells, DKO. Conditions: 24 hours, FIG. 10C. From the text: (§1) Mice: RF and Tlr-9^−/− mice have been described previously (Uccellini et al. (2008) J. Immunol. 181:5875-5884), The DNase II-deficient mice on a C57BL/6 background were kindly provided by Dr. S, Nagata and obtained from the RIKEN Institute. […] and Unc93B1-deficient mice were obtained from Jackson Lab. DnaseII^−/− Ifnar1^−/− (Het), DnaseII^−/− Ifnar1−/− (DKO), and DnaseII^−/− Unc93b1^−/− (TKO), were bred at UMMS. All mice were maintained at the Department of Animal Medicine of the University of Massachusetts Medical School in accordance with the regulations of the American Association for the Accreditation of Laboratory Animal Care.
(§2) Proliferation of B220+ B cells: B cells were purified by magnetic bead separation using CD45R/B220-conjugated magnetic particles (BD Biosciences, San Jose, Calif., USA) and stimulated as described previously (Nundel et al. (2013) J. Leukoc. Biol. 94:865-875) with 15 μg/ml goat anti-mouse IgM F(ab′)2 (Jackson ImmunoResearch), ODN1826 (CpG; Idera Pharmaceuticals), anti-DNA-mAb (Leadbetter et al. (2002) Nature 416:603-607), or DVD-Ig proteins (1 μg/ml). B cell proliferation was assessed by ^3H-thymidine (Amersham Biosciences, Piscataway, N.J., USA) incorporation at 24 hours post-stimulation. For long-term proliferation assays, B220-purified B cells were labeled with a final concentration of 2.5 μM CFSE (Life Technologies) in PBS for 2 minutes. […]

Assay [2] has as its system Primary murine B cells. The assay is described as follows: CFSE dilution / Sytox Blue FACS of primary murine B cells. Conditions: 72 hours; absence of BLyS; FIG. 3. On the procedure: Primary murine B cells were purified by positive selection as described above. For cultures >48 hours old, proliferation was quantified by carboxyfluorescein diacetate, succinimidyl ester (CFSE) dilution and cell death by TO-PRO-3 binding. To label the cells with CFSE, the cells were first washed 2 times with PBS. Next, the stock of CFSE was diluted to 10 μM in PBS and the cells were brought to 1×10^7 cells/ml. The cells were mixed at a 1:1 ratio with 10 μM CFSE and mixed gently for 2 minutes. The CFSE labeling reaction was stopped by adding heat inactivated fetal calf serum equal in volume to the starting volume for the cell suspension. […] Proliferation was measured by fluorophore dilution at 60-72 hours by flow cytometry. […]
Primary murine B cells were labeled and prepared as in Example 2.7 and stimulated with either media alone, […] of TLR9 ligand CpG oligodeoxynucleotide (ODN) 1826, […] of the mouse anti-chromatin autoantibody PL2-3 or […] DVD3759 in the presence or absence of […] of the B cell survival factor BLyS. After 72 hours, cells were stained with 1 μM of the cell permeable DNA stain Sytox Blue and analyzed by fluorescence activated cell sorting (FACS). Cell division was determined by dilution of CFSE and dead cells were identified by staining with Sytox Blue.

Assay [3] has as its system Dnase2−/− Ifnar1−/− Unc93b1−/− TKO B cells. As to the kind of experiment: 3H-thymidine incorporation of B220-purified B cells, TKO. Particulars: 24 hours, FIG. 10C.
Description: as §1, §2

On to ODN 1826 [reference compound], for which the “response of DKO B cells” value in assay [1] is “normal response”. Moreover, the “cell division (CFSE dilution) and cell death (Sytox Blue)” value in assay [2] is recorded as “post-proliferative cell death was not observed”. Moreover, in assay [3], the “response of TKO B cells” value is recorded as “failed to respond”.
